Data from patent US20250171430A1, “PYRAZOLYL COMPOUNDS AS KV7 CHANNEL ACTIVATORS” (Biohaven Therapeutics Ltd., priority 2022, published 2025).

biological target: T1, Kv7.2/7.3 (Homo sapiens, UniProt O43525+O43526); test: Kv7.2/7.3 Activation Assay (Thallium Flux Assay); format: cell-based; details: hKV7.2/7.3 cell line; test compound at single concentration of 10 μM; fluorescence at 90 sec normalized to positive control (retigabine, 30 μM)
T1 construct: Kv7.2 tetracycline-induced, Kv7.3 constitutive
Outline: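 Single-point activity at 10 μM (0.1% DMSO, HEPES-buffered saline, pH 7.4) was scored from fluorescence at 90 s relative to 30 μM retigabine. Categories were none <0.15, moderate 0.15-0.7 and high >0.7. Thallium influx after stimulus addition was followed with FluxOR II Green dye in hKv7.2/7.3 cells, Kv7.2 expressed under overnight tetracycline (10 ng/mL) induction.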

Row | Structure (SMILES) | Kv7.2/7.3 Activity
1 | Cn1nc(NC(=O)C[C@@H]2CC(F)(F)C2(F)F)c(C2CCC2)c1-c1cc(F)cc(F)c1 [Compound 256, (R)-N-(4-cyclobutyl-5-(3,5-difluorophenyl)-1-methyl-1H-pyrazol-3-yl)-2-(2,2,3,3-tetrafluorocyclobutyl)acetamide] | ++ (“++” High Activity ≥ 0.7)
2 | Cn1nc(NC(=O)C2CSC2)c(C2CCC2)c1-c1cc(F)cc(F)c1 [Compound 257, N-(4-cyclobutyl-5-(3,5-difluorophenyl)-1-methyl-1H-pyrazol-3-yl)thietane-3-carboxamide] | ++ (“++” High Activity ≥ 0.7)
3 | Cn1nc(NC(=O)CC2(C(F)F)CC2)c(C2CCC2)c1-c1cc(F)cc(F)c1 [Compound 259, N-(4-cyclobutyl-5-(3,5-difluorophenyl)-1-methyl-1H-pyrazol-3-yl)-2-(1-(difluoromethyl)cyclopropyl)acetamide] | ++ (“++” High Activity ≥ 0.7)
4 | Cn1nc(NC(=O)C[C@@H]2CC(F)(F)C2(F)F)c(C2CCC2)c1-c1cc(F)c(F)c(F)c1 [Compound 262, (R)-N-(4-cyclobutyl-1-methyl-5-(3,4,5-trifluorophenyl)-1H-pyrazol-3-yl)-2-(2,2,3,3-tetrafluorocyclobutyl)acetamide] | ++ (“++” High Activity ≥ 0.7)
5 | Cn1nc(NC(=O)C2CSC2)c(C2CCC2)c1-c1cc(F)c(F)c(F)c1 [Compound 263, N-(4-cyclobutyl-1-methyl-5-(3,4,5-trifluorophenyl)-1H-pyrazol-3-yl)thietane-3-carboxamide] | ++ (“++” High Activity ≥ 0.7)
6 | Cn1nc(NC(=O)CC2(C(F)F)CC2)c(C2CCC2)c1-c1cc(F)c(F)c(F)c1 [Compound 265, N-(4-cyclobutyl-1-methyl-5-(3,4,5-trifluorophenyl)-1H-pyrazol-3-yl)-2-(1-(difluoromethyl)cyclopropyl)acetamide] | ++ (“++” High Activity ≥ 0.7)
7 | Cn1nc(NC(=O)C[C@H]2CC(F)(F)C2(F)F)c(C2CCC2)c1-c1cc(F)cc(F)c1 [Compound 266, (S)-N-(4-cyclobutyl-5-(3,5-difluorophenyl)-1-methyl-1H-pyrazol-3-yl)-2-(2,2,3,3-tetrafluorocyclobutyl)acetamide] | ++ (“++” High Activity ≥ 0.7)
8 | Cn1nc(NC(=O)C[C@@H]2CC(F)(F)C2(F)F)c(C2CCC2)c1C1CCC(F)(F)CC1 [Compound 273, (R)-N-(4-cyclobutyl-5-(4,4-difluorocyclohexyl)-1-methyl-1H-pyrazol-3-yl)-2-(2,2,3,3-tetrafluorocyclobutyl)acetamide] | ++ (“++” High Activity ≥ 0.7)
9 | Cn1nc(NC(=O)C2COC2)c(C2CCC2)c1-c1cc(F)c(F)c(F)c1 [Compound 275, N-(4-cyclobutyl-1-methyl-5-(3,4,5-trifluorophenyl)-1H-pyrazol-3-yl)oxetane-3-carboxamide] | − (“−” No Activity < 0.15)
10 | Cn1nc(NC(=O)C2COC2)c(C2CCC2)c1-c1ccc(Cl)s1 [Compound 276, N-(5-(5-chlorothiophen-2-yl)-4-cyclobutyl-1-methyl-1H-pyrazol-3-yl)oxetane-3-carboxamide] | + (“+” Moderate Activity 0.15-0.7)
11 | Cn1nc(NC(=O)C2COC2)c(C2CCC2)c1-c1ccc(F)c(F)c1 [Compound 278, N-(4-cyclobutyl-5-(3,4-difluorophenyl)-1-methyl-1H-pyrazol-3-yl)oxetane-3-carboxamide] | − (“−” No Activity < 0.15)
12 | Cn1nc(NC(=O)OCC(F)F)c(C2CCC2)c1C1COC1 [Compound 280, 2,2-difluoro-213-ethyl (4-cyclobutyl-1-methyl-5-(oxetan-3-yl)-1H-pyrazol-3-yl)carbamate] | − (“−” No Activity < 0.15)
13 | Cn1nc(NC(=O)C[C@@H]2CC(F)(F)C2(F)F)c(C2CCC2)c1-c1ccc(OC(F)F)nc1 [Compound 283, (R)-N-(4-cyclobutyl-5-(6-(difluoromethoxy)pyridin-3-yl)-1-methyl-1H-pyrazol-3-yl)-2-(2,2,3,3-tetrafluorocyclobutyl)acetamide] | ++ (“++” High Activity ≥ 0.7)

The remaining lines, values ahead:

Row | Kv7.2/7.3 Activity | Structure (SMILES)
14 | ++ (“++” High Activity ≥ 0.7) | Cn1nc(NC(=O)CC2CC(F)(F)C2)c(C2CCC2)c1-c1cc(F)cc(F)c1 [Compound 258, N-(4-cyclobutyl-5-(3,5-difluorophenyl)-1-methyl-1H-pyrazol-3-yl)-2-(3,3-difluorocyclobutyl)acetamide]
15 | ++ (“++” High Activity ≥ 0.7) | Cn1nc(NC(=O)OC2CC(F)(F)C2)c(C2CCC2)c1-c1ccc(Cl)c(F)c1 [Compound 260, 3,3-difluorocyclobutyl (5-(4-chloro-3-fluorophenyl)-4-cyclobutyl-1-methyl-1H-pyrazol-3-yl)carbamate]
16 | ++ (“++” High Activity ≥ 0.7) | Cn1nc(NC(=O)C2CC(F)(F)C2)c(C2CCC2)c1-c1cc(F)c(F)c(F)c1 [Compound 261, N-(4-cyclobutyl-1-methyl-5-(3,4,5-trifluorophenyl)-1H-pyrazol-3-yl)-3,3-difluorocyclobutane-1-carboxamide]
17 | ++ (“++” High Activity ≥ 0.7) | Cn1nc(NC(=O)CC2CC(F)(F)C2)c(C2CCC2)c1-c1cc(F)c(F)c(F)c1 [Compound 264, N-(4-cyclobutyl-1-methyl-5-(3,4,5-trifluorophenyl)-1H-pyrazol-3-yl)-2-(3,3-difluorocyclobutyl)acetamide]
18 | ++ (“++” High Activity ≥ 0.7) | C[C@@H](C(=O)Nc1nn(C)c(-c2cc(F)cc(F)c2)c1C1CCC1)C1CC(F)(F)C1 [Compound 267, (R)-N-(4-cyclobutyl-5-(3,5-difluorophenyl)-1-methyl-1H-pyrazol-3-yl)-2-(3,3-difluorocyclobutyl)propanamide]
19 | + (“+” Moderate Activity 0.15-0.7) | C[C@H](C(=O)Nc1nn(C)c(-c2cc(F)cc(F)c2)c1C1CCC1)C1CC(F)(F)C1 [Compound 268, (S)-N-(4-cyclobutyl-5-(3,5-difluorophenyl)-1-methyl-1H-pyrazol-3-yl)-2-(3,3-difluorocyclobutyl)propanamide]
20 | ++ (“++” High Activity ≥ 0.7) | Cn1nc(NC(=O)OC2CC(F)(F)C2)c(C2CCC2)c1-c1cc(F)cc(F)c1 [Compound 269, 3,3-difluorocyclobutyl (4-cyclobutyl-5-(3,5-difluorophenyl)-1-methyl-1H-pyrazol-3-yl)carbamate]
21 | ++ (“++” High Activity ≥ 0.7) | Cn1nc(NC(=O)NC2CC(F)(F)C2)c(C2CCC2)c1-c1cc(F)cc(F)c1 [Compound 270, 1-(4-cyclobutyl-5-(3,5-difluorophenyl)-1-methyl-1H-pyrazol-3-yl)-3-(3,3-difluorocyclobutyl)urea]
22 | + (“+” Moderate Activity 0.15-0.7) | Cc1cccc(-c2c(NC(=O)C3CC(F)(F)C3)nn(C)c2C2CC(F)(F)C2)c1 [Compound 271, N-(5-(3,3-difluorocyclobutyl)-1-methyl-4-(m-tolyl)-1H-pyrazol-3-yl)-3,3-difluorocyclobutane-1-carboxamide]
23 | + (“+” Moderate Activity 0.15-0.7) | Cn1nc(NC(=O)C2CC(F)(F)C2)c(C2CCC2)c1-c1ccc(OC(F)F)nc1 [Compound 272, N-(4-cyclobutyl-5-(6-(difluoromethoxy)pyridin-3-yl)-1-methyl-1H-pyrazol-3-yl)-3,3-difluorocyclobutane-1-carboxamide]
24 | ++ (“++” High Activity ≥ 0.7) | Cn1nc(NC(=O)OC2CC(F)(F)C2)c(C2CCC2)c1C1CC(F)(F)C1 [Compound 274, 3,3-difluorocyclobutyl (4-cyclobutyl-5-(3,3-difluorocyclobutyl)-1-methyl-1H-pyrazol-3-yl)carbamate]
25 | + (“+” Moderate Activity 0.15-0.7) | Cn1nc(NC(=O)NC2CC(F)(F)C2)c(C2CCC2)c1-c1ccc(C(F)(F)F)cc1 [Compound 277, 1-(4-cyclobutyl-1-methyl-5-(4-(trifluoromethyl)phenyl)-1H-pyrazol-3-yl)-3-(3,3-difluorocyclobutyl)urea]
26 | + (“+” Moderate Activity 0.15-0.7) | Cn1nc(NC(=O)OC2CC(F)(F)C2)c(C2CCC2)c1-c1ccc(C(F)(F)F)cc1 [Compound 279, 3,3-difluorocyclobutyl (4-cyclobutyl-1-methyl-5-(4-(trifluoromethyl)phenyl)-1H-pyrazol-3-yl)carbamate]
27 | ++ (“++” High Activity ≥ 0.7) | Cn1nc(NC(=O)OC2CC(F)(F)C2)c(C2CCC2)c1-c1ccc(OC(F)(F)F)cc1 [Compound 281, 3,3-difluorocyclobutyl (4-cyclobutyl-1-methyl-5-(4-(trifluoromethoxy)phenyl)-1H-pyrazol-3-yl)carbamate]
28 | − (“−” No Activity < 0.15) | Cn1nc(NC(=O)C2CC(F)(F)C2)c(C2CCC2)c1C1COC1 [Compound 282, N-(4-cyclobutyl-1-methyl-5-(oxetan-3-yl)-1H-pyrazol-3-yl)-3,3-difluorocyclobutane-1-carboxamide]
29 | ++ (“++” High Activity ≥ 0.7) | Cn1nc(NC(=O)C[C@@H]2CC(F)(F)C2(F)F)c(C2(C)CCC2)c1-c1ccc(F)cc1 [Compound 284, (R)-N-(5-(4-fluorophenyl)-1-methyl-4-(1-methylcyclobutyl)-1H-pyrazol-3-yl)-2-(2,2,3,3-tetrafluorocyclobutyl)acetamide]
30 | + (“+” Moderate Activity 0.15-0.7) | Cn1nc(NC(=O)NC2CC(F)(F)C2)c(C2CCC2)c1-c1ccc(OC(F)(F)F)cc1 [Compound 285, 1-(4-cyclobutyl-1-methyl-5-(4-(trifluoromethoxy)phenyl)-1H-pyrazol-3-yl)-3-(3,3-difluorocyclobutyl)urea]
31 | ++ (“++” High Activity ≥ 0.7) | Cn1nc(NC(=O)C2CC(F)(F)C2)c(C2(C)CCC2)c1-c1ccc(F)cc1 [Compound 286, 3,3-difluoro-N-(5-(4-fluorophenyl)-1-methyl-4-(1-methylcyclobutyl)-1H-pyrazol-3-yl)cyclobutane-1-carboxamide]
